# Test results: patent US20210290597A1, “METHOD OF TREATING A CONDITION ASSOCIATED WITH NEURODEGENERATION USING INHIBITORS OF OAT3” (Neuropore Therapies, Inc., priority 2018, published 2021)
# System: Translocator Protein (18 kDa) (TSPO)
# Experiment: TSPO immunofluorescence, L41 APP transgenic mice
# Type: in vivo
# Conditions: 5 mg/kg daily i.p.
# Description: Neuroinflammation is associated with increased expression of the 18-kDa translocator protein (TSPO), which is present on the mitochondria of activated microglia, astroglia and macrophages (Crawshaw and Robertson 2017). The effects of Compound 1 on TSPO expression were assessed in both L41 APP transgenic and non-transgenic mice in a 1 month administration study. L41 APP transgenic mice (36 total mice, n=8-11 mice per treatment group) were injected (i.p.) daily with 5 mg/kg of Compound 1 or a vehicle control (5% DMSO+20% Cremphor EL+0.9% normal saline) for […]. Non-transgenic mice (18 total mice, n=8-11 mice per treatment group) were used as a control and were injected daily (i.p.) with 10 mg/kg of Compound 1 (data not shown) or a vehicle control (5% DMSO+20% Cremphor EL+0.9% normal saline) for 1 month. After 30 days, the mice were sacrificed, and immunofluoresence (IF) detection of TSPO were assessed in the harvested brain tissues.
# The harvested brain tissues were drop fixed using 4% PFA and sectioned on a vibratome, and representative sections corresponding to the neuropil of cortex were assessed for TSPO with standard immunofluorescence (IF) staining.
compound,measurement,value
"O=S(=O)(c1ccc(-n2cn[nH]c2=S)cc1)c1ccc(Cl)c(C(F)(F)F)c1 [Compound 1, 4-(4-((4-chloro-3-(trifluoromethyl)phenyl)sulfonyl)phenyl)-2,4-dihydro-3H-1,2,4-triazole-3-thione]",cortical TSPO level vs vehicle-treated Line 41 mice,reduces the TSPO level in a statistically significant manner
